Literature values in PMC7904743, “WIDOCK: a reactive docking protocol for virtual screening of covalent inhibitors” (Journal of Computer-Aided Molecular Design, 2021).
Where two headings read alike, the source gives them in different places.

How the values were obtained:
OTUB2 = details: experimental actives if % labeling higher than 50%, cited from earlier work
NUDT7 = details: protein labeling at 200 μM; experimental actives if % labeling higher than 50%; cited from earlier work
[1] = thiol reactivity, cited from earlier work
[2] = natural log of average kinetic rate constant
[3] = natural log of average rate constant
[4] = natural log of average rate constant k
[5] = natural logarithm of average rate constant

| Compound | OTUB2 % labeling (OTUB2; OTUB2 protein labeling) [%] | NUDT7 % labeling (NUDT7) [%] | ln(avg k) [1, 2] | ln(avg k) [1, 3] | OTUB2 % labeling (OTUB2) [%] | ln(avg k) [1, 4] | ln(avg k) [1, 5] |
| --- | --- | --- | --- | --- | --- | --- | --- |
| O=C(CCl)N1CCc2sccc2C1c1ccccc1 (stereo not shown) [PCM-0103024, O=C(CCl)N1CCc2sccc2C1c1ccccc1] | 0 | 69 | -15.442 | -15.442 |  |  |  |
| Cc1ccccc1NC(=O)CCl [PCM-0102887, Cc1ccccc1NC(=O)CCl] | 0 | 0 | -16.445 | -16.445 |  |  |  |
| CNC(=O)C1CCN(C(=O)CCl)CC1 [PCM-0102815, CNC(=O)C1CCN(C(=O)CCl)CC1] | 8 | 0 | -15.403 | -15.403 |  |  |  |
| O=C(CCl)N1CCCc2cccc(F)c21 [PCM-0103071, O=C(CCl)N1CCCc2cccc(F)c21] | 0 | 40 | -16.007 | -16.007 |  |  |  |
| O=C(CCl)NC(=O)NCc1ccco1 [PCM-0102494, O=C(CCl)NC(=O)NCc1ccco1] |  | 0 |  |  | 0 | -16.128 | -16.128 |
| O=C(CCl)Nc1ccc(Cl)cc1C(=O)O [PCM-0102127, O=C(CCl)Nc1ccc(Cl)cc1C(=O)O] |  | 0 |  |  | 10 | -16.749 | -16.749 |
| CC(C)(C)c1ccc(NC(=O)CCl)cc1 [PCM-0102622, CC(C)(C)c1ccc(NC(=O)CCl)cc1] |  | 0 |  |  | 32 | -15.995 | -15.995 |
| O=C(CCl)Nc1cc2c(cc1Cl)OCO2 [PCM-0102209, O=C(CCl)Nc1cc2c(cc1Cl)OCO2] |  | 13 |  |  | 27 | -16.385 | -16.385 |
| Cc1cc(C)c(NC(=O)CCl)c(Cl)c1 [PCM-0102994, Cc1cc(C)c(NC(=O)CCl)c(Cl)c1] | 0 | 26 | -16.989 | -16.989 |  |  |  |
| N#Cc1cccc(CNC(=O)CCl)c1 [PCM-0102936, N#Cc1cccc(CNC(=O)CCl)c1] | 32 | 0 | -16.667 | -16.667 |  |  |  |
| O=C(CCl)N1CCN(Cc2ccccc2)CC1 [PCM-0103063, O=C(CCl)N1CCN(Cc2ccccc2)CC1] | 35 | 7 | -16.178 | -16.178 |  |  |  |
| O=C(CCl)Nc1cccc(I)c1 [PCM-0102154, O=C(CCl)Nc1cccc(I)c1] |  | 24 |  |  | 49 | -15.790 | -15.790 |
| Cc1ccccc1CN1CCN(C(=O)CCl)CC1 [PCM-0102876, Cc1ccccc1CN1CCN(C(=O)CCl)CC1] | 0 | 0 | -15.594 | -15.594 |  |  |  |
| O=C(CCl)N1CCCC(C(F)(F)F)C1 (stereo not shown) [PCM-0102676, O=C(CCl)N1CCCC(C(F)(F)F)C1] |  | 14 |  |  | 0 | -15.616 | -15.616 |
| CC(C)c1nnc(NC(=O)CCl)s1 [PCM-0102928, CC(C)c1nnc(NC(=O)CCl)s1] | 0 | 4 | -15.769 | -15.769 |  |  |  |
| CC(C)(C)OC(=O)CNC(=O)CCl [PCM-0102981, CC(C)(C)OC(=O)CNC(=O)CCl] | 0 | 0 | -17.661 | -17.661 |  |  |  |
| CS(=O)(=O)c1ccc(NC(=O)CCl)cc1 [PCM-0102335, CS(=O)(=O)c1ccc(NC(=O)CCl)cc1] |  | 6 |  |  | 30 | -15.005 | -15.005 |
| O=C(CCl)Nc1ccc(N2CCCCC2)cc1 [PCM-0102612, O=C(CCl)Nc1ccc(N2CCCCC2)cc1] |  | 0 |  |  | 37 | -16.206 | -16.206 |
| CC(C)(C)CCNC(=O)CCl [PCM-0102853, CC(C)(C)CCNC(=O)CCl] | 0 | 0 | -17.028 | -17.028 |  |  |  |
| N#Cc1c(NC(=O)CCl)sc2c1CCCCC2 [PCM-0102286, N#Cc1c(NC(=O)CCl)sc2c1CCCCC2] |  | 33 |  |  | 0 | -16.020 | -16.020 |
| O=C(CCl)Nc1ccon1 [PCM-0103077, O=C(CCl)Nc1ccon1] | 30 | 0 | -16.220 | -16.220 |  |  |  |
| N#Cc1ccc(NC(=O)CCl)cc1 [PCM-0102875, N#Cc1ccc(NC(=O)CCl)cc1] | 8 | 14 | -15.678 | -15.678 |  |  |  |

| Compound | OTUB2 % labeling (OTUB2; OTUB2 protein labeling) [%] | NUDT7 % labeling (NUDT7) [%] | ln(avg k) [1, 2] | ln(avg k) [1, 3] | OTUB2 % labeling (OTUB2) [%] | ln(avg k) [1, 4] | ln(avg k) [1, 5] |
| --- | --- | --- | --- | --- | --- | --- | --- |
| O=C(CCl)N1CCN(C(=O)c2cccs2)CC1 [PCM-0102306, O=C(CCl)N1CCN(C(=O)c2cccs2)CC1] |  | 0 |  |  | 0 | -15.421 | -15.421 |
| CC(NC(=O)CCl)c1ccc(F)cc1 (stereo not shown) [PCM-0102228, CC(NC(=O)CCl)c1ccc(F)cc1] |  | 7 |  |  | 20 | -15.820 | -15.820 |
| Cc1ccc(CN(C)C(=O)CCl)cc1 [PCM-0103017, Cc1ccc(CN(C)C(=O)CCl)cc1] | 0 | 9 | -16.138 | -16.138 |  |  |  |
| CNC(=O)NC(=O)CCl [PCM-0102534, CNC(=O)NC(=O)CCl] |  | 0 |  |  | 0 | -16.522 | -16.522 |
| CN(Cc1cc(Br)cs1)C(=O)CCl [PCM-0103081, CN(Cc1cc(Br)cs1)C(=O)CCl] | 0 | 0 | -15.601 | -15.601 |  |  |  |
| O=C(CCl)N1CCN(c2ccc(O)cc2)CC1 [PCM-0102357, O=C(CCl)N1CCN(c2ccc(O)cc2)CC1] |  | 0 |  |  | 0 | -15.487 | -15.487 |
| O=C(CCl)Nc1ccc(F)cc1Cl [PCM-0103040, O=C(CCl)Nc1ccc(F)cc1Cl] | 0 | 0 | -16.348 | -16.348 |  |  |  |
| O=C(CCl)Nc1ccc(I)cc1 [PCM-0102278, O=C(CCl)Nc1ccc(I)cc1] |  | 9 |  |  | 24 | -15.784 | -15.784 |
| O=C(CCl)N1CCCC1c1ccsc1 (stereo not shown) [PCM-0102693, O=C(CCl)N1CCCC1c1ccsc1] |  | 20 |  |  | 0 | -15.634 | -15.634 |
| CN(Cc1ccc(Cl)cc1)C(=O)CCl [PCM-0102344, CN(Cc1ccc(Cl)cc1)C(=O)CCl] |  | 34 |  |  | 0 | -15.486 | -15.486 |
| O=C(Nc1ccccc1O)C1CCN(C(=O)CCl)CC1 [PCM-0102389, O=C(Nc1ccccc1O)C1CCN(C(=O)CCl)CC1] |  | 10 |  |  | 14 | -15.332 | -15.332 |
| CC(C)(C)NC(=O)CNC(=O)CCl [PCM-0102817, CC(C)(C)NC(=O)CNC(=O)CCl] | 41 | 0 | -16.378 | -16.378 |  |  |  |
| Cc1cc(C)c(C(C)NC(=O)CCl)cc1C (stereo not shown) [PCM-0102879, Cc1cc(C)c(C(C)NC(=O)CCl)cc1C] | 17 | 0 | -16.314 | -16.314 |  |  |  |
| COC(=O)C1(NC(=O)CCl)CCC(C)CC1 (stereo not shown) [PCM-0102827, COC(=O)C1(NC(=O)CCl)CCC(C)CC1] | 0 | 0 | -16.743 | -16.743 |  |  |  |
| O=C1CN(C(=O)CCl)CCN1 [PCM-0103008, O=C1CN(C(=O)CCl)CCN1] | 0 | 0 | -15.775 | -15.775 |  |  |  |
| CC(C)c1ccc(NC(=O)CCl)cc1 [PCM-0102532, CC(C)c1ccc(NC(=O)CCl)cc1] |  | 18 |  |  | 33 | -15.987 | -15.987 |
| Cc1ccc(NC(=O)CCl)cc1S(N)(=O)=O [PCM-0102177, Cc1ccc(NC(=O)CCl)cc1S(N)(=O)=O] |  | 10 |  |  | 27 | -15.256 | -15.256 |
| CCCNC(=O)NC(=O)CCl [PCM-0102702, CCCNC(=O)NC(=O)CCl] |  | 0 |  |  | 22 | -16.357 | -16.357 |
| O=C(CCl)NCc1ccccc1 [PCM-0102538, O=C(CCl)NCc1ccccc1] |  | 0 |  |  | 28 | -16.796 | -16.796 |
| CCOC(=O)C1CCCCN1C(=O)CCl (stereo not shown) [PCM-0102937, CCOC(=O)C1CCCCN1C(=O)CCl] | 13 | 0 | -16.030 | -16.030 |  |  |  |
| O=C(CCl)N1CCN(S(=O)(=O)c2cccc(F)c2)CC1 [PCM-0102327, O=C(CCl)N1CCN(S(=O)(=O)c2cccc(F)c2)CC1] |  | 13 |  |  | 0 | -15.130 | -15.130 |
